Starred links: 1 amine or outer side, 2 acyl side, 3 side chain; linkers in the order of their positions; H or OH if unused. Positions of bridges follow the written chain, without caps; N, C: chain ends. Residues, ends and D or L forms follow the SMILES beside them. TBMB = c1c(C[*:1])cc(C[*:3])cc1C[*:2]
Columns and labels:
U2OS cells = assay: Morphological cell painting assay; type: cell-based; conditions: U2OS cells, 20 h, 579 parameters, fraction of significantly changed parameters vs DMSO; 10, 3 or 1 µM
Text: Encouraged by the promising results from the pulldown experiment, and in order to get insight into bioactivity and possible mode of action, we analyzed peptide 33 in a morphological cell painting assay. The cell painting assay is a target agnostic assay which determines a cells morphological profile after treatment with a compound of interest and compares it to the profiles of a set of reference compounds. ^[22] By identifying reference compounds with a similar profile a hypothesis of the compounds mode of action can be generated based on their annotated targets. ^[23] U2OS cells were treated with our compound and 579 parameters were analyzed. […] We therefore synthesized a variant modified with an N‐terminal TAT sequence to enhance its permeability (compound 49, see Table 1 and Supplemental Figure 4). ^[24] […] Applying compound 49 to the cell painting assay led to an induction of 5.9 % and the corresponding profile was compared to the set of 3000 reference compounds. […] To validate this hypothesis, we exposed U2OS cells to compound 49 and evaluated the levels of p53 by Western blot. […] The exact mechanism by which the compounds elevate levels of p53 requires further investigation. However, it has previously been shown that the NuRD complex, of which RbAp48 is a core component, is able to deacetylate p53 and thereby modulate its stability. ^[26] The effect is mediated by the MTA family of proteins from which the compounds described here are derived. […]
The described assay follows closely the method described by Bray et al. Initially, 5 µl U2OS medium were added to each well of a 384 -well plate (PerkinElmer CellCarrier -384 Ultra). Subsequently, U2OS cell were seeded with a density of 1600 cells per well in 20 µl medium. The plate was incubated for 10 min at the ambient temperatu re, followed by an a dditional 4 h incubation (37 °C, 5 % CO2). Compound treatment was performed with the Echo 520 acoustic dispenser (Labcyte) at final concentrations of 10 µM, 3 µM or 1 µM. Incubation with compound was performed for 20 h (37 °C, 5 % CO2). Subsequently, mitoc hondria were stained with Mito Tracker Deep Red (Thermo Fisher Scientific, Cat. No. M22426). The Mito Tracker Deep Red stock solution (1 mM) was diluted to a final concentration of 100 nM in prewarmed medium. The medium was removed fr om the plate leaving 1 0 µl residual volume and 25 µl of the Mito Tracker solution were added to each well. 22 The plate was incubated for 30 min in darkness (37 °C, 5 % CO2). To fix the cells 7 µl of 18.5 % formaldehyde in PBS were added, resulting in a fi nal formaldehyde conce ntration of 3.7 %. Subsequently, the plate was incubated for another 20 min in darkness (RT) and washed three times with 70 µl of PBS. (Biotek Washer Elx405). Cells were permeabilized by addition of 25 µl 0.1 % Triton X -100 to each well, followed by 15 min incubation (RT) in darkness. The cells were washed three times with PBS leaving a final volume of 10 µl. To each well 25 µl of a staining solution were added, which contains 1 % BSA, 5 µl/mL Phalloidin (Thermo Fisher Scientific, A123 81), 25 µg/ml Concanav alin A (Thermo Fisher Scientific, Cat. […]
conjugate (Thermo Fisher Scientific, Cat. No. W11262) and […] SYTO 14 solution (Thermo Fisher Scientific, Cat. No. S7576). The plate is incubated for 30 min (RT) in darkness and washed three times with 70 µl PBS. After the final washing step the PBS was not aspirated. The plates were sealed and centrifuged for 1 min at 500 rpm.
The plates were prepare d in triplicates with shifted layouts to reduce plate effects and imaged using a Micro XL High-Content Screening System (Molecular Devices) in 5 channels (DAPI: Ex350 -400/ Em410- […]
The generated images were processed with the CellProfiler package (https://cellprofiler.org/, version 3.0.0) on a computing cluster of the Max Planck Society to extract 1716 cell features (parameters) per microscope site. The data was then further aggregated as medians per well (9 sites -> 1 well), then […]

[1] = Peptide stability in MDA-MB-231 whole cell lysate; type: in vitro ADME; conditions: human, 37°C, HPLC, duplicate
Experimental: To investigate whether the cyclization strategy influences the stability of the peptides we incubated 3, 8 and 33 in MDA‐MB‐231 cell lysate. […]
Fluorescence polarization assay […]
Isothermal Titration Calorimetry […]
Peptide stability was tested in whole cell lysate prepared from MDA-MB-231 cells using the freeze-thaw method. Peptides were dissolved in lysate (normalized to 5mg/ml protein using PBS) at 600 µM and incubated at 37°C. Samples were taken at different time points and mixed with an equal amount of MeOH containing 0.05 mg/ml ethylparaben as an i nternal standard. The samples were mixed and kept on ice for 15 minutes before centrifugation at 14000 rpm at 4 °C for 10 min. The supernatant was carefully removed and analyzed by HPLC. Peptide peaks were integrated and surface areas compared […]
Measurements were performed in duplicate.

CC(=O)N[C@H]1CSCc2cc3cc(c2)CSC[C@@H](C(=O)N[C@@H](C)C(N)=O)NC(=O)[C@@H]2CCCN2C(=O)[C@H](CCCCN)NC(=O)[C@H](Cc2ccc(O)cc2)NC(=O)[C@@H]2CCCN2C(=O)[C@H](CCCNC(=N)N)NC(=O)[C@H](CCCNC(=N)N)NC(=O)[C@H](C)NC(=O)[C@H](CSC3)NC(=O)[C@H](CCCNC(=N)N)NC(=O)[C@H](CCCCN)NC(=O)[C@H]([C@@H](C)O)NC1=O [Peptide 33] (Ac-CTKRCARRPYKPCA-NH2; linker 1-5-13 via TBMB)
induction (U2OS cells): no induction | half-life at 600 µM ([1]; MDA-MB-231 whole cell lysate (freeze-thaw), 5 mg/ml protein in PBS, peptide 600 µM, read-out: t 1/2 (half-life)): 1.57 h | remaining at 1 h, 600 µM ([1]; T 60 min, MDA-MB-231 whole cell lysate 5 mg/ml protein, 600 µM, read-out: % left): 57.8% | remaining at 2 h, 600 µM ([1]; T 120 min, MDA-MB-231 whole cell lysate 5 mg/ml protein, 600 µM, read-out: % left): 41.4% | remaining at 4 h, 600 µM ([1]; T 240 min, MDA-MB-231 whole cell lysate 5 mg/ml protein, 600 µM, read-out: % left): 0%

— article PMC7894522, “Structure Based Design of Bicyclic Peptide Inhibitors of RbAp48” (Angewandte Chemie (International Ed. in English), 2020)
